Laboratory results published in patent US20260022142A1, “MACROCYCLIC IMMUNOMODULATORS” (Bristol-Myers Squibb Company, priority 2022, published 2026).
Bridge positions count the residues as written; N and C are the ends. Square brackets hold non-standard residues; d marks the D form. Peptide text beside a SMILES is read from it. * marks the point of attachment. Phe(4-COOH) = N[C@@H](Cc1ccc(C(=O)O)cc1)C(=O)O; Bip = N[C@@H](Cc1ccc(-c2ccccc2)cc1)C(=O)O; Phe(3-Me) = Cc1cccc(C[C@H](N)C(=O)O)c1; 4Pal = N[C@@H](Cc1ccncc1)C(=O)O; Cha = N[C@@H](CC1CCCCC1)C(=O)O; Cit = NC(=O)NCCC[C@H](N)C(=O)O; Carboxymethyl = O=C(O)C*; Orn = NCCC[C@H](N)C(=O)O; Aun = NCCCCCCCCCCC(=O)O; Dab = NCC[C@H](N)C(=O)O; Dap = NC[C@H](N)C(=O)O; AEEA = NCCOCCOCC(=O)O

Target: T1, PD-1/PD-L1 interaction (PE-labeled human PD-L1-Ig binding to Jurkat cell line over-expressing human PD-1) (Homo sapiens, UniProt Q15116)
T1 construct: expressed in transfected cells; host or cells: Jurkat
Assay: Jurkat-PD-1 Cell Binding High-Content Screening Assay (CBA)
Type: cell-based
Conditions: Jurkat cell line over-expressing human PD-1; PE-labeled PD-L1-Ig 20 nM final; read-out: Jurkat hPD1-PDL1 IC50
Method in brief: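 First, compound is added to PD-1-expressing Jurkat cells in serum-containing DMEM and left 2 h at 37° C. Next, PE-conjugated PD-L1-Ig is introduced at 20 nM final concentration for 1 hour. Finally, cells are fixed in 4% paraformaldehyde with Hoechst 33342, washed and imaged.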

T1 sequence (Q15116 25-288): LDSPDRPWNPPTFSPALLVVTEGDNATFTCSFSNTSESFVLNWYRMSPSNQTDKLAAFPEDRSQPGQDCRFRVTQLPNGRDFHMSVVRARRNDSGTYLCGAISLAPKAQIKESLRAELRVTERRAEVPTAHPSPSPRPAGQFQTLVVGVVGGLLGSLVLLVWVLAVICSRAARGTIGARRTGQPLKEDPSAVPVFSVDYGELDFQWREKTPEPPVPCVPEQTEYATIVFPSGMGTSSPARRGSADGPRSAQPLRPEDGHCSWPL

| Structure (SMILES) | IC50 |
| --- | --- |
| Cc1cccc(C[C@@H]2NC(=O)[C@H](CC(=O)O)NC(=O)[C@H](Cc3ccc(OCC(=O)O)cc3)NC(=O)[C@H](CN)NC(=O)CSC[C@@H](C(=O)N[C@@H](CCC(=O)O)C(=O)NCCOCCOCC(=O)NCCCCCCCCCCC(=O)O)NC(=O)[C@H]([C@@H](C)O)NC(=O)[C@H](C(C)C)NC(=O)[C@H](CC3CCCCC3)NC(=O)[C@H](CCN)NC(=O)[C@@H](CC(C)C)NC(=O)[C@H](CCCN)NC(=O)[C@H](CCCNC(N)=O)NC(=O)[C@H](Cc3ccc(-c4ccccc4)cc3)NC(=O)[C@H](C(C)C)NC2=O)c1 [Compound 1037] ({CH2CO}-[Dap]Y(Carboxymethyl)D[Phe(3-Me)]V[Bip][Cit][Orn][dL][Dab][Cha]VTCE[AEEA][Aun]-OH; thioether N-14) | 7.6 nM |
| Cc1cccc(C[C@@H]2NC(=O)[C@H](CC(=O)O)NC(=O)[C@H](Cc3ccc(OCC(=O)O)cc3)NC(=O)[C@H](CN)NC(=O)CSC[C@@H](C(=O)NCCOCCOCC(=O)NCCCCCCCCCCC(=O)O)NC(=O)[C@H]([C@@H](C)O)NC(=O)[C@H](C(C)C)NC(=O)[C@H](CC3CCCCC3)NC(=O)[C@H](CCN)NC(=O)[C@@H](CC(C)C)NC(=O)[C@H](CCCN)NC(=O)[C@H](CCCNC(N)=O)NC(=O)[C@H](Cc3ccc(-c4ccccc4)cc3)NC(=O)[C@H](C(C)C)NC2=O)c1 [Compound 1038] ({CH2CO}-[Dap]Y(Carboxymethyl)D[Phe(3-Me)]V[Bip][Cit][Orn][dL][Dab][Cha]VTC[AEEA][Aun]-OH; thioether N-14) | 20.8 nM |
| CC[C@H](C)[C@@H]1NC(=O)[C@H](Cc2ccc(-c3ccccc3)cc2)NC(=O)[C@H](C(C)C)NC(=O)[C@H](Cc2cccc(C)c2)NC(=O)[C@H](CC(=O)O)NC(=O)[C@H](Cc2ccc(C(=O)O)cc2)NC(=O)[C@H](Cc2ccncc2)NC(=O)CSC[C@@H](C(=O)N[C@@H](C)C(=O)N[C@@H](CCC(=O)O)C(=O)NCCCCCCCCCCC(=O)O)NC(=O)[C@H]([C@@H](C)O)NC(=O)[C@H](C(C)C)NC(=O)[C@H](CC2CCCCC2)NC(=O)[C@H](CCN)NC(=O)[C@@H](CC(C)C)NC(=O)[C@H](CCCN)NC1=O [Compound 1039] | 11.9 nM |
| CC[C@H](C)[C@@H]1NC(=O)[C@H](Cc2ccc(-c3ccccc3)cc2)NC(=O)[C@H](C(C)C)NC(=O)[C@H](Cc2cccc(C)c2)NC(=O)[C@H](CC(=O)O)NC(=O)[C@H](Cc2ccc(C(=O)O)cc2)NC(=O)[C@H](Cc2ccncc2)NC(=O)CSC[C@@H](C(=O)N[C@@H](CCC(=O)O)C(=O)NCCCCCCCCCCC(=O)O)NC(=O)[C@H]([C@@H](C)O)NC(=O)[C@H](C(C)C)NC(=O)[C@H](CC2CCCCC2)NC(=O)[C@H](CCN)NC(=O)[C@@H](CC(C)C)NC(=O)[C@H](CCCN)NC1=O [Compound 1040] ({CH2CO}-[4Pal][Phe(4-COOH)]D[Phe(3-Me)]V[Bip]I[Orn][dL][Dab][Cha]VTCE[Aun]-OH; thioether N-14) | 52.9 nM |
| CC[C@H](C)[C@@H]1NC(=O)[C@H](Cc2ccc(-c3ccccc3)cc2)NC(=O)[C@H](C(C)C)NC(=O)[C@H](Cc2cccc(C)c2)NC(=O)[C@H](CC(=O)O)NC(=O)[C@H](Cc2ccc(C(=O)O)cc2)NC(=O)[C@H](Cc2ccncc2)NC(=O)CSC[C@@H](C(=O)N[C@@H](C)C(=O)N[C@@H](CCC(=O)O)C(=O)NCC(=O)NCCCCCCCCCCC(=O)O)NC(=O)[C@H]([C@@H](C)O)NC(=O)[C@H](C(C)C)NC(=O)[C@H](CC2CCCCC2)NC(=O)[C@H](CCN)NC(=O)[C@@H](CC(C)C)NC(=O)[C@H](CCCN)NC1=O [Compound 1041] | 15.1 nM |
| CC[C@H](C)[C@@H]1NC(=O)[C@H](Cc2ccc(-c3ccccc3)cc2)NC(=O)[C@H](C(C)C)NC(=O)[C@H](Cc2cccc(C)c2)NC(=O)[C@H](CC(=O)O)NC(=O)[C@H](Cc2ccc(C(=O)O)cc2)NC(=O)[C@H](Cc2ccncc2)NC(=O)CSC[C@@H](C(=O)N[C@@H](C)C(=O)N[C@@H](CC(=O)O)C(=O)NCC(=O)NCCCCCCCCCCC(=O)O)NC(=O)[C@H]([C@@H](C)O)NC(=O)[C@H](C(C)C)NC(=O)[C@H](CC2CCCCC2)NC(=O)[C@H](CCN)NC(=O)[C@@H](CC(C)C)NC(=O)[C@H](CCCN)NC1=O [Compound 1042] | 15.3 nM |
| CC[C@H](C)[C@@H]1NC(=O)[C@H](Cc2ccc(-c3ccccc3)cc2)NC(=O)[C@H](C(C)C)NC(=O)[C@H](Cc2cccc(C)c2)NC(=O)[C@H](CC(=O)O)NC(=O)[C@H](Cc2ccc(C(=O)O)cc2)NC(=O)[C@H](Cc2ccncc2)NC(=O)CSC[C@@H](C(=O)N[C@@H](CC(=O)O)C(=O)NCCCCCCCCCCC(=O)O)NC(=O)[C@H]([C@@H](C)O)NC(=O)[C@H](C(C)C)NC(=O)[C@H](CC2CCCCC2)NC(=O)[C@H](CCN)NC(=O)[C@@H](CC(C)C)NC(=O)[C@H](CCCN)NC1=O [Compound 1043] ({CH2CO}-[4Pal][Phe(4-COOH)]D[Phe(3-Me)]V[Bip]I[Orn][dL][Dab][Cha]VTCD[Aun]-OH; thioether N-14) | 15.6 nM |
| Cc1cccc(C[C@@H]2NC(=O)[C@H](CC(=O)O)NC(=O)[C@H](Cc3ccc(OCC(=O)O)cc3)NC(=O)[C@H](CN)NC(=O)CSC[C@@H](C(=O)N[C@@H](C)C(=O)N[C@@H](CCC(=O)O)C(=O)NCCCCCCCCCCC(=O)O)NC(=O)[C@H]([C@@H](C)O)NC(=O)[C@H](C(C)C)NC(=O)[C@H](CC3CCCCC3)NC(=O)[C@H](CCN)NC(=O)[C@@H](CC(C)C)NC(=O)[C@H](CCCN)NC(=O)[C@H](CCC(=O)O)NC(=O)[C@H](Cc3ccc(-c4ccccc4)cc3)NC(=O)[C@H](C(C)C)NC2=O)c1 [Compound 1044] ({CH2CO}-[Dap]Y(Carboxymethyl)D[Phe(3-Me)]V[Bip]E[Orn][dL][Dab][Cha]VTCAE[Aun]-OH; thioether N-14) | 6.1 nM |
| Cc1cccc(C[C@@H]2NC(=O)[C@H](CC(=O)O)NC(=O)[C@H](Cc3ccc(OCC(=O)O)cc3)NC(=O)[C@H](CN)NC(=O)CSC[C@@H](C(=O)N[C@@H](CCC(=O)O)C(=O)NCCCCCCCCCCC(=O)O)NC(=O)[C@H]([C@@H](C)O)NC(=O)[C@H](C(C)C)NC(=O)[C@H](CC3CCCCC3)NC(=O)[C@H](CCN)NC(=O)[C@@H](CC(C)C)NC(=O)[C@H](CCCN)NC(=O)[C@H](CCC(=O)O)NC(=O)[C@H](Cc3ccc(-c4ccccc4)cc3)NC(=O)[C@H](C(C)C)NC2=O)c1 [Compound 1045] ({CH2CO}-[Dap]Y(Carboxymethyl)D[Phe(3-Me)]V[Bip]E[Orn][dL][Dab][Cha]VTCE[Aun]-OH; thioether N-14) | 11 nM |
| Cc1cccc(C[C@@H]2NC(=O)[C@H](CC(=O)O)NC(=O)[C@H](Cc3ccc(OCC(=O)O)cc3)NC(=O)[C@H](CN)NC(=O)CSC[C@@H](C(=O)N[C@@H](C)C(=O)N[C@@H](CCC(=O)O)C(=O)NCC(=O)NCCCCCCCCCCC(=O)O)NC(=O)[C@H]([C@@H](C)O)NC(=O)[C@H](C(C)C)NC(=O)[C@H](CC3CCCCC3)NC(=O)[C@H](CCN)NC(=O)[C@@H](CC(C)C)NC(=O)[C@H](CCCN)NC(=O)[C@H](CCC(=O)O)NC(=O)[C@H](Cc3ccc(-c4ccccc4)cc3)NC(=O)[C@H](C(C)C)NC2=O)c1 [Compound 1046] ({CH2CO}-[Dap]Y(Carboxymethyl)D[Phe(3-Me)]V[Bip]E[Orn][dL][Dab][Cha]VTCAEG[Aun]-OH; thioether N-14) | 16.2 nM |
| Cc1cccc(C[C@@H]2NC(=O)[C@H](CC(=O)O)NC(=O)[C@H](Cc3ccc(OCC(=O)O)cc3)NC(=O)[C@H](CN)NC(=O)CSC[C@@H](C(=O)N[C@@H](C)C(=O)N[C@@H](CC(=O)O)C(=O)NCC(=O)NCCCCCCCCCCC(=O)O)NC(=O)[C@H]([C@@H](C)O)NC(=O)[C@H](C(C)C)NC(=O)[C@H](CC3CCCCC3)NC(=O)[C@H](CCN)NC(=O)[C@@H](CC(C)C)NC(=O)[C@H](CCCN)NC(=O)[C@H](CCC(=O)O)NC(=O)[C@H](Cc3ccc(-c4ccccc4)cc3)NC(=O)[C@H](C(C)C)NC2=O)c1 [Compound 1047] ({CH2CO}-[Dap]Y(Carboxymethyl)D[Phe(3-Me)]V[Bip]E[Orn][dL][Dab][Cha]VTCADG[Aun]-OH; thioether N-14) | 13.2 nM |
| Cc1cccc(C[C@@H]2NC(=O)[C@H](CC(=O)O)NC(=O)[C@H](Cc3ccc(OCC(=O)O)cc3)NC(=O)[C@H](CN)NC(=O)CSC[C@@H](C(=O)N[C@@H](CC(=O)O)C(=O)NCCCCCCCCCCC(=O)O)NC(=O)[C@H]([C@@H](C)O)NC(=O)[C@H](C(C)C)NC(=O)[C@H](CC3CCCCC3)NC(=O)[C@H](CCN)NC(=O)[C@@H](CC(C)C)NC(=O)[C@H](CCCN)NC(=O)[C@H](CCC(=O)O)NC(=O)[C@H](Cc3ccc(-c4ccccc4)cc3)NC(=O)[C@H](C(C)C)NC2=O)c1 [Compound 1048] ({CH2CO}-[Dap]Y(Carboxymethyl)D[Phe(3-Me)]V[Bip]E[Orn][dL][Dab][Cha]VTCD[Aun]-OH; thioether N-14) | 18.3 nM |
| Cc1cccc(C[C@@H]2NC(=O)[C@H](CC(=O)O)NC(=O)[C@H](Cc3ccc(OCC(=O)O)cc3)NC(=O)[C@H](CN)NC(=O)CSC[C@@H](C(=O)N[C@@H](C)C(=O)N[C@@H](CC(=O)O)C(=O)NCCCCCCCCCCC(=O)O)NC(=O)[C@H]([C@@H](C)O)NC(=O)[C@H](C(C)C)NC(=O)[C@H](CC3CCCCC3)NC(=O)[C@H](CCN)NC(=O)[C@@H](CC(C)C)NC(=O)[C@H](CCCN)NC(=O)[C@H](CCC(=O)O)NC(=O)[C@H](Cc3ccc(-c4ccccc4)cc3)NC(=O)[C@H](C(C)C)NC2=O)c1 [Compound 1049] ({CH2CO}-[Dap]Y(Carboxymethyl)D[Phe(3-Me)]V[Bip]E[Orn][dL][Dab][Cha]VTCAD[Aun]-OH; thioether N-14) | 15 nM |
| Cc1cccc(C[C@@H]2NC(=O)[C@H](CC(=O)O)NC(=O)[C@H](Cc3ccc(OCC(=O)O)cc3)NC(=O)[C@H](Cc3ccc(OCC(=O)O)cc3)NC(=O)CSC[C@@H](C(=O)NCC(=O)N[C@@H](CCN)C(=O)NCC(=O)NCCCCCCCCCCC(=O)O)NC(=O)[C@H](CO)NC(=O)[C@H](C(C)C)NC(=O)[C@H](CC3CCCCC3)NC(=O)[C@H](CCN)NC(=O)[C@@H](CC(C)C)NC(=O)[C@H](CCCN)NC(=O)[C@H](C(C)C)NC(=O)[C@H](Cc3ccc(-c4ccccc4)cc3)NC(=O)[C@H](CC(C)C)NC2=O)c1 [Compound 1050] ({CH2CO}-Y(Carboxymethyl)Y(Carboxymethyl)D[Phe(3-Me)]L[Bip]V[Orn][dL][Dab][Cha]VSCG[Dab]G[Aun]-OH; thioether N-14) | 20.9 nM |
